Laboratory results from publication PMC9851200, “Multiparameter phenotypic screening for endogenous TFEB and TFE3 translocation identifies novel chemical series modulating lysosome function” (Autophagy, 2022).
Where two headings read alike, the source gives them in different places.

Key:
endogenous TFEB = assay: TFEB nuclear translocation, immunocytochemistry high-content imaging; assay type: cell-based
endogenous TFE3 = assay: TFE3 nuclear translocation, immunocytochemistry high-content imaging; assay type: cell-based
SH-SY5Y cells [1] = assay: Chemotype enrichment analysis of PKIS2 primary screen hit categories
SH-SY5Y cells [2] = test system: SH-SY5Y cells; note: reference of the scale not given here
SH-SY5Y cells [3] = conditions: human
Procedure: Total cell lysis with 5 µL 5% Triton-X 100 (Sigma-Aldrich, T8787) is used as a positive control for the assay and toxicity is expressed as a percentage of luminescence under DMSO conditions.

SH-SY5Y cells [4] = conditions: human; remark: listed apart in the source

| SMILES | TFEB % (endogenous TFEB) [%] | TFE3 % (endogenous TFE3) [%] | Outcome (SH-SY5Y cells [1]) | DQ Intensity (SH-SY5Y cells [2]) | DQ Spot (SH-SY5Y cells [2]) | AK (SH-SY5Y cells [3]; SH-SY5Y cells, 24 h, 1 µM) | Nuclear Count (SH-SY5Y cells [4]; SH-SY5Y cells, 24 h, 1 µM) | AK (SH-SY5Y cells [3]) | Nuclear Count (SH-SY5Y cells [4]) | AK (SH-SY5Y cells [3]; 24 h, 1 µM) | Nuclear Count (SH-SY5Y cells [4]; 24 h, 1 µM) |
| --- | --- | --- | --- | --- | --- | --- | --- | --- | --- | --- | --- |
| Nc1n[nH]c2nnc(-c3ccccc3)cc12 [SB-517389] | 5.21 | 18.57 | DQ Only | 136.15 | 127.72 | 99.42 | 69.78 | – | – | – | – |
| COc1cccc(C2=C(Nc3cccc(C(=O)O)c3)C(=O)NC2=O)c1 [UNC10225061A] | 7.42 | 19.97 | TFE3 | 83.20 | 110.64 | 91.51 | 71.42 | – | – | – | – |
| O=C(Nc1n[nH]c2nc(-c3ccccc3)c(Cl)cc12)C1CC1 [SB-734909] | 6.63 | 10.45 | DQ Only | 123.78 | 126.24 | 83.64 | 45.35 | – | – | – | – |
| O=C(Nc1n[nH]c2nc(-c3ccco3)c(Br)cc12)C1CCN(Cc2ccccc2)C1 (stereo not shown) [SB-742034] | 3.21 | 21.82 | TFE3 | 103.44 | 100.36 | 87.38 | 103.32 | – | – | – | – |
| CCN1CCN(CCCC(=O)Nc2n[nH]c3nc(-c4ccc(O)cc4)c(Br)cc23)CC1 [SB-731579] | 17.61 | 6.82 | – | 115.44 | 103.09 | 91.62 | 67.01 | – | – | – | – |
| Cc1ccc(-n2nc(C(C)(C)C)cc2NC(=O)Nc2ccc(OCCN3CCOCC3)c3ccccc23)cc1 [UNC10225354A] | 7.39 | 11.86 | – | 143.22 | 116.14 | – | – | 120.63 | 65.33 | – | – |
| Nc1n[nH]c2cnc(-c3ccccc3)cc12 [SB-642124] | 10.03 | 5.79 | – | 94.71 | 98.20 | 86.32 | 121.57 | – | – | – | – |
| O=C1NC(=O)C(c2ccccc2)=C1Nc1cccc(O)c1 [UNC10225065A] | 4.40 | 9.48 | – | 107.12 | 107.03 | 106.60 | 88.09 | – | – | – | – |
| O=C1NC(=O)C(c2ccccc2Cl)=C1Nc1cccc(Cl)c1 [UNC10225092A] | 6.93 | 13.82 | – | 81.85 | 94.92 | 96.89 | 114.88 | – | – | – | – |
| CN(C1=C(c2ccccc2)C(=O)NC1=O)c1ccccc1 [UNC10225087A] | 6.00 | 7.91 | TOXIC | 118.90 | 112.39 | 157.36 | 105.86 | – | – | – | – |
| O=C(Nc1n[nH]c2nc(-c3cccs3)c(Br)cc12)C1CCCC1 [SB-743341] | 21.21 | 12.29 | – | 118.79 | 104.54 | 91.49 | 111.90 | – | – | – | – |
| O=C1NC(=O)C(N2CCc3ccccc32)=C1c1ccccc1Cl [UNC10225255A] | 3.84 | 11.28 | DQ Only | 155.35 | 121.27 | 83.08 | 86.30 | – | – | – | – |
| Nc1n[nH]c2nnc(-c3ccccc3)c(-c3ccccc3)c12 [UNC10225185A] | 8.38 | 12.30 | – | 101.09 | 91.84 | 73.45 | 95.91 | – | – | – | – |
| O=C1NC(=O)C(N2CCc3ccccc32)=C1c1cccc(Cl)c1 [UNC10225137A] | 4.79 | 20.87 | TFE3 | 107.62 | 107.27 | 100.20 | 132.24 | – | – | – | – |
| O=C(Nc1n[nH]c2cc(-c3ccsc3)ccc12)C1CC1 [SB-732932] | 11.50 | 8.30 | – | 63.56 | 84.83 | 126.66 | 130.18 | – | – | – | – |
| O=C(Nc1n[nH]c2nc(-c3nccs3)c(Br)cc12)C1CCCC1 [SB-742609] | 8.05 | 7.93 | – | 95.35 | 108.28 | 69.40 | 69.12 | – | – | – | – |
| CCCC(=O)Nc1n[nH]c2ncccc12 [SB-601436] | 6.83 | 11.89 | – | 119.21 | 109.95 | 122.64 | 111.13 | – | – | – | – |
| COc1ccccc1-c1ccc2c(NC(=O)C3CC3)n[nH]c2n1 [SB-711239] | 3.98 | 10.01 | – | 73.89 | 92.69 | 73.81 | 104.88 | – | – | – | – |
| CSc1ccc(NC2=C(c3ccc(Cl)cc3)C(=O)NC2=O)cc1 [UNC10225216A] | 4.27 | 17.03 | – | 88.23 | 93.29 | 104.34 | 155.73 | – | – | – | – |
| COc1cccc(C2=C(Nc3cc(Cl)c(O)c(Cl)c3)C(=O)NC2=O)c1 [UNC10225267A] | 6.51 | 12.35 | – | 123.38 | 111.15 | 136.91 | 119.42 | – | – | – | – |
| O=C(Nc1n[nH]c2cc(-c3cccs3)ccc12)C1CC1 [SB-731284] | 12.38 | 10.84 | – | 119.55 | 107.15 | 71.30 | 98.09 | – | – | – | – |
| O=C(Nc1n[nH]c2nc(-c3ccccc3)ccc12)C1CC1 [SB-708999] | 6.34 | 15.72 | – | 102.03 | 111.17 | 67.50 | 127.54 | – | – | – | – |
| O=C(Nc1n[nH]c2nc(-c3nccs3)c(Br)cc12)C1CC1 [SB-742251] | 12.43 | 5.59 | – | 109.29 | 109.81 | 80.83 | 130.73 | – | – | – | – |
| COc1cccc(-c2ccc3c(NC(=O)C4CC4)n[nH]c3n2)c1 [SB-710903] | 9.14 | 8.53 | – | 82.25 | 92.88 | 104.06 | 105.81 | – | – | – | – |
| COc1cccc(C2=C(Nc3cccc(Cl)c3)C(=O)NC2=O)c1 [UNC10225288A] | 6.04 | 8.01 | – | 106.89 | 108.64 | 133.69 | 80.70 | – | – | – | – |
| Cn1cnc2c(N)ncnc21 [UNC10225123A] | 4.18 | 9.16 | – | 105.88 | 110.82 | – | – | 74.79 | 110.43 | – | – |
| O=C(Nc1n[nH]c2nc(-c3cccs3)c(Br)cc12)C1CC1 [SB-735297] | 7.45 | 10.45 | – | 103.59 | 106.97 | 112.72 | 125.04 | – | – | – | – |
| Cc1ccc(C(=O)NC2CCCC2)cc1-c1ccc(C(=O)NCC2CC2)cc1 [UNC10225270A] | 16.20 | 10.04 | – | 84.15 | 81.23 | – | – | – | – | 80.83 | 92.17 |
